Broadly, the IC50 is the point on the concentration scale where inhibition reaches its midpoint.

Structures are written as SMILES. Read-outs that look alike come from different tables or passages of the source.

Experimental findings from patent publication US20230014445A1, “ALLOSTERIC CHROMENONE INHIBITORS OF PHOSPHOINOSITIDE 3-KINASE (PI3K) FOR THE TREATMENT OF DISEASE” (Petra Pharma Corporation, priority 2021, published 2023) are described below.

Experiment [1] concerns the target T1, human full length PIK3KA H1047R mutant (p110α/p85α complex) (Homo sapiens, UniProt P42336, H1047R).
T1 construct: Recombinant, catalytically active human full length PIK3KA Wild-type and H1047R mutant were purchased; 6xHis (N); purchased EMD Millipore Sigma 14-792M
The experiment is described as follows: PI3K-Alpha Kinase (PIK3CA) biochemical activity, H1047R mutant (ADP-Glo). The note with it: 20 uM ATP. In outline:
(§1)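 ADP formation, measured by ADP-Glo luminescence after reaction to about 10% ATP conversion at 27° C., gives 10-point 4-parameter IC50 curves normalized to no-enzyme and DMSO controls. Lipid substrate was PIP2diC8 or Soy PI at 50 uM, with 20 uM ATP. WT or H1047R p110α/p85α complex (1-5 nM) was preincubated 1 h with compound.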
A general note: In ADP-Glo the light output rises with the ADP produced.

For experiment [2], the target named is PI3K-α (PIK3CA) in MDA-MB-453 cells (Homo sapiens, UniProt P42336). Nature of the experiment: PI3K-Alpha Kinase (PIK3CA) activity in vitro cell based assay (AlphaLisa SureFire). Here is the method:
PI3K-Alpha Kinase (PIK3CA) Activity In Vitro Cell Based Assay and Determining IC50 Values for Inhibitors
The MDA-MB-453 (ATCC-HTB-131) cell line was obtained from the American Type Culture Collection (Manassas, Va.). Cells were maintained in Dulbecco's Modified Eagle Media (DMVEM, Gibco 11965-092) supplemented with 10% Fetal Bovine Serum, heat inactivated (FBS HI, Gibco 10082-147), 1× non-essential amino acids (NEAA, Gibco 11140-050), and 1 mM sodium pyruvate (Gibco 11360-070). Cultures were maintained in a humidified incubator at 37° C. under […].
For compound testing in 0% FBS, MDA-MB-453 cells were seeded at a density of 1.5×10^4 cells per well in white 384-well plates in 20 μl of Minimum Essential Media (MEM) assay media with 1×NEAA, 1 mM sodium pyruvate, and 1 μg/mL human insulin (Sigma I9278). Compounds dissolved in 10 mM stock solutions in DMSO were serially diluted 1:3 in DMSO to generate a 10-point dilution series and plated using an acoustic liquid handler system (Echo 550 Series Liquid Handler, Labcyte). A 5× intermediate compound dilution plate in MEM with 1×NEAA and 1 mM sodium pyruvate (150 μM starting compound concentration in 1.5% DMSO) was then prepared. Five μl of the intermediate serially diluted compounds were added to the cell plate to final concentrations ranging from […] in 0.3% DMSO. 0.3% DMSO alone was used to establish the maximum (MAX) signal and GDC-0032 at a final concentration of 1 μM was used as a reference compound for the minimum (MIN) signal. After 3 hours treatment, the medium was removed, and the cells lysed in 10 μL of 1× SureFire Lysis buffer with shaking for 10 minutes at room temperature. The Acceptor Mix (Reaction Buffer 1+Reaction Buffer 2+Activation Buffer+SureFire Ultra Acceptor Beads) was prepared by diluting Activation buffer 25-fold in combined Reaction Buffer 1 and Reaction Buffer 2. The Acceptor beads were diluted 50-fold in the combined Reaction Buffers. Five μL of Acceptor Mix was added to each well, the plate was sealed and covered with foil and incubated for 1 hour at room temperature. The Donor Mix (dilution buffer+SureFire Ultra Donor Beads) was prepared by diluting Donor Beads 50-fold in dilution buffer. Five μL of the Donor Mix was added to each well and the plate sealed and covered with foil and incubated for 1 hour at room temperature in the dark. The plates were read on a Neo2 plate reader instrument from Biotek using standard AlphaLisa settings.
Compounds were tested in duplicate and the average % inhibition at each compound concentration was used to generate a single dose response curve. The data were processed using the Genedata-Screener tool. Relative IC50 values were determined using luminescence units by calculating percent inhibition with respect to the in-plate “MIN” (GDC-0032 reference control) and “MAX” (DMSO) controls. The data was analyzed using a 4-parameter nonlinear logistic equation (four-parameter logistic concentration-response curve):
Y=bottom+[(top−bottom)/1+(X/IC50)slope]
where Y=% inhibition, X=concentration of inhibitor, bottom=minimum value of y attained by curve-fit, top=maximum value of y attained by curve-fit and slope=steepness of curve at the IC50.
% Inhibition=[(signal at X−median Min)/(median Max−median Min)]×100
IC50: concentration of compound that reduces a given response (ligand binding, enzyme response) by 50%. Relative IC50: concentration giving half the compound's maximum response.
For IC50 values shown in Table B, “A” means IC50<50 nM; “B” means IC50 ranging between 50 nM and 100 nM; “C” means IC50 ranging between 100 nM and 500 nM; “D” means IC50>500 nM.
Background: In Alpha technology, singlet oxygen from a donor bead excites a nearby acceptor bead.

Experiment [3] concerns the target T2, human full length PIK3KA Wild-type (p110α/p85α complex) (Homo sapiens, UniProt P42336).
T2 construct: Recombinant, catalytically active human full length PIK3KA Wild-type and H1047R mutant were purchased; 6xHis (N); purchased EMD Millipore Sigma 14-602M
Nature of the experiment: PI3K-Alpha Kinase (PIK3CA) biochemical activity, wild-type (ADP-Glo). Conditions: 20 uM ATP. In outline: as §1

The mark [4] stands for this setting: 0% FBS, 3 hours treatment, read-out: PI3K-α (PIK3CA) in vitro cell based assay IC50.
[5] abbreviates: read-out: PI3K-α (PIK3CA) in vitro cell based assay IC50, 0% FBS, 3 hours treatment.

T1 sequence (P42336 whole entry H1047R): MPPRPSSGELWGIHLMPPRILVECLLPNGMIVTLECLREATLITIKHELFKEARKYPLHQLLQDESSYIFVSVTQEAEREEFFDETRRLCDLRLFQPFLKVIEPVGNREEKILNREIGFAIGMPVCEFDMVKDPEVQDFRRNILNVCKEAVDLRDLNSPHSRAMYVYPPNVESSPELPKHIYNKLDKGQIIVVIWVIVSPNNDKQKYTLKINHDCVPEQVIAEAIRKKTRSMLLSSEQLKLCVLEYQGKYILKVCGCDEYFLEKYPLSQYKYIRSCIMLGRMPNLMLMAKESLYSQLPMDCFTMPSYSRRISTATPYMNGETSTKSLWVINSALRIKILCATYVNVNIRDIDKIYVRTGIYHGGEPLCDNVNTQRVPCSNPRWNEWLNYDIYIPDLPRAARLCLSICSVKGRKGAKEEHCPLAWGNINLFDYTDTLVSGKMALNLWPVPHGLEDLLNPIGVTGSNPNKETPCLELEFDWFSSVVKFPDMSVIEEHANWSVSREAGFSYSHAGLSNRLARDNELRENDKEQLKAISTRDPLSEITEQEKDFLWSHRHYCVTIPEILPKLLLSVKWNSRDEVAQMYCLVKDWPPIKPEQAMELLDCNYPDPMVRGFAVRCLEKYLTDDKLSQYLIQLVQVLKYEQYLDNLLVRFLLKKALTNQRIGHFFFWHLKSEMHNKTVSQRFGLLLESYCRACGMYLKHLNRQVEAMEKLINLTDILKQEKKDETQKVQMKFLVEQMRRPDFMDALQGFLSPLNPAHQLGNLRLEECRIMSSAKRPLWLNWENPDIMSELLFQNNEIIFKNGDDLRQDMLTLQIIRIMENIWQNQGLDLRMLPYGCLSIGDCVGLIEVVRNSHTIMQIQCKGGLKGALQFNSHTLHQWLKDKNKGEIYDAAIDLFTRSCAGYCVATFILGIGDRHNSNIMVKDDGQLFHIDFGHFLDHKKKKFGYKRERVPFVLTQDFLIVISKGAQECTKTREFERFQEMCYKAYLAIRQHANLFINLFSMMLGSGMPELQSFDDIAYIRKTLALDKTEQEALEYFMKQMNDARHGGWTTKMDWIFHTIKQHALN
T1 sequence (P27986 whole entry partner): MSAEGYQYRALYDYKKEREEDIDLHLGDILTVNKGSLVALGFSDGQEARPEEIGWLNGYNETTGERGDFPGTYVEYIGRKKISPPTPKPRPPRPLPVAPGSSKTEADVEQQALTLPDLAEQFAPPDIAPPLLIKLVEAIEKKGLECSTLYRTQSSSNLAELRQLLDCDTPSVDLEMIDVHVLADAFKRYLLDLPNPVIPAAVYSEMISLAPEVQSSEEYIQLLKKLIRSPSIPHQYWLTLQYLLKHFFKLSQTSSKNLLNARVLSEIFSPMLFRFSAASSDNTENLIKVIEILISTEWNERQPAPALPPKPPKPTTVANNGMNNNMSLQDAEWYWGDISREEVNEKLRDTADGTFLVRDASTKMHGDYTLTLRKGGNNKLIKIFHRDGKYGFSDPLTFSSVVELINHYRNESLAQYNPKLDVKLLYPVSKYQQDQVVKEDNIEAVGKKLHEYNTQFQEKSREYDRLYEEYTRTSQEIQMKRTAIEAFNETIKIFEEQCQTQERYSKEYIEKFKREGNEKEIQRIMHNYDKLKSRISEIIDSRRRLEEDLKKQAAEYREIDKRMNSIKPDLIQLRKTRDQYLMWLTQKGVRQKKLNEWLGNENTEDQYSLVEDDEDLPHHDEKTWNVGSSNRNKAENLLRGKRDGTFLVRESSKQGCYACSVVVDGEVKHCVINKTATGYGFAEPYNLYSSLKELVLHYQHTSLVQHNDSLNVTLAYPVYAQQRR
Sequence of PI3K-α (PIK3CA) in MDA-MB-453 cells (P42336 whole entry): as the sequence (P42336 whole entry H1047R) above, with R1047H counted along it
Sequence of PI3K-α (PIK3CA) in MDA-MB-453 cells (P27986 2-724, further chain): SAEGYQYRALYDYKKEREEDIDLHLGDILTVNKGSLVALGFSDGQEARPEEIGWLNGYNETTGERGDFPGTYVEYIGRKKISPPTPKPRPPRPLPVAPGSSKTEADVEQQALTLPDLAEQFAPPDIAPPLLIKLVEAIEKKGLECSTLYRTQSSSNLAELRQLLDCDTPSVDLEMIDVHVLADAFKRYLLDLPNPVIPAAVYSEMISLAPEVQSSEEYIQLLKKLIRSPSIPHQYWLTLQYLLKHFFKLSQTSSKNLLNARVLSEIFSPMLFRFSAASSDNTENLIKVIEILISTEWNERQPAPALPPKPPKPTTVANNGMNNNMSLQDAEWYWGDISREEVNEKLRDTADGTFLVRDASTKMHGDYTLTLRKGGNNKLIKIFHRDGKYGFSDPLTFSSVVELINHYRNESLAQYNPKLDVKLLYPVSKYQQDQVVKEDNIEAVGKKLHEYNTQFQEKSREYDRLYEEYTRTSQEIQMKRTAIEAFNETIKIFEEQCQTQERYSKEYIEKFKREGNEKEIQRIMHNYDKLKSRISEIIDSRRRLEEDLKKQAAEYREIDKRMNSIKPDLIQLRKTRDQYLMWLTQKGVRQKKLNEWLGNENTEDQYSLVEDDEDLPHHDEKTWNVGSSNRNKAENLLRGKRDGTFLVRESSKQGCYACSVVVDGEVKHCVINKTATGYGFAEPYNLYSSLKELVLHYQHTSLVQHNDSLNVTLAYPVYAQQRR

For the molecule `COc1ncc(-c2cc(=O)c3cc(C)cc(C(C)Nc4ccccc4C(=O)O)c3o2)cn1` (single isomer, unassigned) [Example 5, 2-[1-[2-(2-Methoxypyrimidin-5-yl)-6-methyl-4-oxo-chromen-8-yl]ethylamino]benzoic acid], the IC50 in experiment [1] (PIP2diC8 lipid substrate) is above 10000 nM; in experiment [2] (setting [4]), above 500 nM; in experiment [3] (PIP2diC8 lipid substrate), above 10000 nM.

As for `Cc1cc(C(C)Nc2ccccc2C(=O)O)c2oc(-c3cncc(F)c3)cc(=O)c2c1` (single isomer, unassigned) [Example 44, 2-[1-[2-(5-Fluoro-3-pyridyl)-6-methyl-4-oxo-chromen-8-yl]ethylamino]benzoic acid, Isomer 2,2,2,2-trifluoroacetic acid], the values for the IC50 in experiment [1] (Soy PI lipid substrate), in experiment [2] (setting [5]) and in experiment [3] (Soy PI lipid substrate) were below 500 nM, below 50 nM and 1000 to 5000 nM, respectively.

As to `CC(Nc1ccccc1C(=O)O)c1cc(F)cc2c(=O)cc(-c3ccccn3)oc12` (single isomer, unassigned) [Example 46, 2-[1-[6-Fluoro-4-oxo-2-(2-pyridyl)chromen-8-yl]ethylamino]benzoic acid, Isomer 1,2,2,2-trifluoroacetic acid], the concentration for half-maximal inhibition (IC50) in experiment [1] (Soy PI lipid substrate) is below 500 nM; in experiment [2] (setting [5]) it was below 50 nM; in experiment [3] (Soy PI lipid substrate), 5000 to 10000 nM.

In the case of `Cc1cc(C(C)Nc2ccccc2C(=O)O)c2oc(-c3cnn(C(F)F)c3)cc(=O)c2c1` (single isomer, unassigned) [Example 52, 2-[1-[2-[1-(Difluoromethyl)pyrazol-4-yl]-6-methyl-4-oxo-chromen-8-yl]ethylamino]benzoic acid, Isomer 2,2,2,2-trifluoroacetic acid], the IC50 in experiment [1] (Soy PI lipid substrate) was below 500 nM; in experiment [2] (setting [5]), 50 to 100 nM; in experiment [3] (Soy PI lipid substrate) it was 1000 to 5000 nM.

Consider `CC(Nc1ccccc1C(=O)O)c1cc(F)cc2c(=O)cc(-c3cnn(-c4cccnc4)c3)oc12` (single isomer, unassigned) [Example 55, 2-[1-[6-Fluoro-4-oxo-2-[1-(3-pyridyl)pyrazol-4-yl]chromen-8-yl]ethylamino]benzoic acid, Isomer 1,2,2,2-trifluoroacetic acid], for which the IC50 in experiment [1] (Soy PI lipid substrate) is below 500 nM; in experiment [2] (setting [5]), 100 to 500 nM; in experiment [3] (Soy PI lipid substrate), 5000 to 10000 nM.

`COc1ccc(-c2oc3c(C(C)Nc4ccccc4C(=O)O)cc(C)cc3c(=O)c2C)cn1` (single isomer, unassigned) [Example 65, 2-[1-[2-(6-Methoxy-3-pyridyl)-3,6-dimethyl-4-oxo-chromen-8-yl]ethylamino]benzoic acid, Isomer 1,2,2,2-trifluoroacetic acid]: the results for the IC50 in experiment [1] (Soy PI lipid substrate), in experiment [2] (setting [5]) and in experiment [3] (Soy PI lipid substrate) were below 500 nM, below 50 nM and 1000 to 5000 nM, respectively.

In the case of `COc1ccccc1-n1cc(-c2oc3c(C(C)Nc4ccccc4C(=O)O)cc(C)cc3c(=O)c2C)cn1` (single isomer, unassigned) [Example 70, 2-[1-2-[1-(2-Methoxyphenyl)pyrazol-4-yl]-3,6-dimethyl-4-oxo-chromen-8-yl]ethylamino]benzoic acid, Isomer 1,2,2,2-trifluoroacetic acid], the results for the IC50 in experiment [1] (Soy PI lipid substrate), in experiment [2] (setting [5]) and in experiment [3] (Soy PI lipid substrate) were 1000 to 5000 nM, below 50 nM and 1000 to 5000 nM, respectively.

For `COc1ncc(-n2cc(-c3oc4c(C(C)Nc5ccccc5C(=O)O)cc(C)cc4c(=O)c3C)cn2)cn1` (single isomer, unassigned) [Example 72, 2-[1-[2-[1-(2-Methoxypyrimidin-5-yl)pyrazol-4-yl]-3,6-dimethyl-4-oxo-chromen-8-yl]ethylamino]benzoic acid, Isomer 1,2,2,2-trifluoroacetic acid], the IC50 is below 500 nM in experiment [1] (Soy PI lipid substrate), 50 to 100 nM in experiment [2] (setting [5]) and 1000 to 5000 nM in experiment [3] (Soy PI lipid substrate).

`Cc1cc(C(C)Nc2ccccc2C(=O)O)c2oc(-c3cnn(-c4ccc(C#N)cc4)c3)c(C)c(=O)c2c1` (single isomer, unassigned) [Example 73, 2-[1-[2-[1-(4-Cyanophenyl)pyrazol-4-yl]-3,6-dimethyl-4-oxo-chromen-8-yl]ethylamino]benzoic acid, Isomer 1,2,2,2-trifluoroacetic acid]: the IC50 in experiment [1] (Soy PI lipid substrate) was below 500 nM; in experiment [2] (setting [5]), 50 to 100 nM; in experiment [3] (Soy PI lipid substrate) it was 500 to 1000 nM.

On to `COc1ccc(-n2cc(-c3cc(=O)c4cc(C)cc(C(C)Nc5ccccc5C(=O)O)c4o3)nn2)cc1OC` (single isomer, unassigned) [Example 133, 2-[1-[2-[1-(3,4-Dimethoxyphenyl)triazol-4-yl]-6-methyl-4-oxo-chromen-8-yl]ethylamino]benzoic acid, Isomer 2,2,2,2-trifluoroacetic acid], for which the IC50 in experiment [2] (setting [5]) lay within 100 to 500 nM.

In the case of `COc1ccc(-n2nncc2-c2cc(=O)c3cc(C)cc(C(C)Nc4ccccc4C(=O)O)c3o2)cc1OC` (single isomer, unassigned) [Example 134, 2-[1-[2-[3-(3,4-Dimethoxyphenyl)triazol-4-yl]-6-methyl-4-oxo-chromen-8-yl]ethylamino]benzoic acid, Isomer 2,2,2,2-trifluoroacetic acid], the IC50 in experiment [2] (setting [5]) is above 500 nM.

For `Cc1cc(C(C)Nc2ccccc2C(=O)O)c2oc(-c3cnn(C)c3)c(C)c(=O)c2c1` (single isomer, unassigned; isomer 1) [Example 136, 2-[1-[3,6-Dimethyl-2-(1-methylpyrazol-4-yl)-4-oxo-chromen-8-yl]ethylamino]benzoic acid, Isomer 1], the concentration for half-maximal inhibition (IC50) in experiment [2] (setting [4]) was below 50 nM.

As to `Cc1cc(C(C)Nc2ccc(Cl)nc2C(=O)O)c2oc(-c3cncc(F)c3)c(C)c(=O)c2c1` (single isomer, unassigned; isomer 1) [Example 138, 6-Chloro-3-[1-[2-(5-fluoro-3-pyridyl)-3,6-dimethyl-4-oxo-chromen-8-yl]ethylamino]pyridine-2-carboxylic acid, Isomer 1], in experiment [2] (setting [4]), the IC50 is below 50 nM.

As for `Cc1cc(C(C)Nc2cccnc2C(=O)O)c2oc(-c3cccc(C(F)F)n3)c(C)c(=O)c2c1` (single isomer, unassigned; isomer 1) [Example 139, 3-[1-[2-[6-(Difluoromethyl)-2-pyridyl]-3,6-dimethyl-4-oxo-chromen-8-yl]ethylamino]pyridine-2-carboxylic acid; 2,2,2-trifluoroacetic acid, Isomer 1], the IC50 in experiment [2] (setting [5]) was in the range of 100 to 500 nM.

For `Cc1cc(C(C)Nc2cccc(F)c2C(=O)O)c2oc(-c3ccccn3)c(C)c(=O)c2c1` (single isomer, unassigned; isomer 1) [Example 140, 2-[1-[3,6-Dimethyl-4-oxo-2-(2-pyridyl)chromen-8-yl]ethylamino]-6-fluoro-benzoic acid, Isomer 1], in experiment [2] (setting [4]), the IC50 lay within 50 to 100 nM.

Take `Cc1cc(C(C)Nc2ccc(Cl)nc2C(=O)O)c2oc(-c3cccc(C(F)F)n3)c(C)c(=O)c2c1` (single isomer, unassigned; isomer 1) [Example 141, 6-Chloro-3-[1-[2-[6-(difluoromethyl)-2-pyridyl]-3,6-dimethyl-4-oxo-chromen-8-yl]ethylamino]pyridine-2-carboxylic acid, Isomer 1]: the half-maximal inhibitory concentration (IC50) in experiment [2] (setting [4]) was below 50 nM.
